Series [1] has as its target isolated strips of the descending aorta (Rattus norvegicus, UniProt P22002). Nature of the series: cell-based. More on the design: species or system Male Wistar rats. Conditions: for Kb: isolated rat aorta, Ca2+ dose-response curves in 25 mM K+, Arunlakshana method, read-out: pA2 (converted). The procedure:
The in vitro calcium antagonistic activity of the subject compounds of the formula (I) was evaluated according to substantially the same method as that of Toda et al., J. Pharmacol. Exp. Ther. 181, 512 (1972) and ibid., 191, 139 (1974).
Male Wistar rats weighing 300-400 g were stunned by a sharp blow to the head. The isolated strips of the descending aorta were-fixed vartically in a 50 ml organ both containing Krebs-Henseleit solution maintained at 37° C. and saturated with a 95% O2 +5% CO2 gas mixture. Isometric tension was measured with a foree-displacement transducer and recorded on a polygraph recorder. During a 60-90 min equilibration period the resting tension was repeatedly adjusted to 1 g. The vessels having ability to potassium-induced contractions were exposed to a Ca^2+ -free medium for 30 min and then to 25 mM K^+ solution. When a contractile plateau was reached, Ca^2+ was added, and the cumulative response to 0.25, 0.5 and 4 mM Ca^2+ was recorded. After wash-out and a equilibration period with renewed testing of contractile ability, the preparations were once more exposed to Ca^2+ -free medium. The test compound was added to the organ bath 5 min before administration of potassium. Calcium was cumulatively added once again and the contractile response so obtained was expressed in percent of the contraction elicited by 4 mM Ca^2+. Dose-response curves for Ca^2+ were carried out cumulatively in the absence or presence of increasing concentrations of test compound. The pA2 values were calculated by the method of Arunlakshana et al., Brit. J. Pharmacol., 14, 48 (1959).

Series [2] concerns isolated rabbit aortic strip. Nature of the series: inhibition of norepinephrine-induced contractions of isolated rabbit aortic strip potentiated by ouabain. The class given is cell-based. Conditions: Oryctolagus cuniculus, read-out: concentration at which norepinephrine-induced contractions are inhibited.
Another series relates to SHR. Nature of the series: 4 weeks administration to SHR, hypotensive potency. As to conditions: 15 mg/kg/day po. Format: in vivo, spontaneous hypertensive rats (SHR). The method, then: The hypotensive potency of the compound D was also compared with that of nicardipine by administering to the SHR for 4 weeks at 15 mg/kg/day, po.
In series [3] the test system is mean arterial blood pressure. Nature of the series: antihypertensive vasodilating activity in anesthetized, ganglion-blocked rats with blood pressure maintained by intravenous angiotensin II. Format: in vivo. As to conditions: 0.01 mg/kg and 0.003 mg/kg. The method, then: The anesthetized and ganglion-blocked rats whose blood pressure were maintained by an intravenous infusion of angiotensin II were prepared and the test compounds were evaluated according to substantially the same method as that of Deitchman et al., J. Pharmacol Methods, 3, 311 (1980).

In series [4] the test system is spontaneous hypertensive rats (SHR). As to the kind of experiment: single oral administration to spontaneous hypertensive rats (SHR), antihypertensive activity. The class given is in vivo. Conditions: compound D 1 mg/kg vs nicardipine 3 mg/kg.
Series [5] concerns physiological saline loaded rats. As to the kind of experiment: diuretic activity in physiological saline loaded rats. The class given is in vivo. As to conditions: compound D 3 mg/kg po vs nicardipine 10 mg/kg po.

Where a name gives a salt, the structure may show the parent alone.

isolated strips of the descending aorta, sequence (P22002 whole entry): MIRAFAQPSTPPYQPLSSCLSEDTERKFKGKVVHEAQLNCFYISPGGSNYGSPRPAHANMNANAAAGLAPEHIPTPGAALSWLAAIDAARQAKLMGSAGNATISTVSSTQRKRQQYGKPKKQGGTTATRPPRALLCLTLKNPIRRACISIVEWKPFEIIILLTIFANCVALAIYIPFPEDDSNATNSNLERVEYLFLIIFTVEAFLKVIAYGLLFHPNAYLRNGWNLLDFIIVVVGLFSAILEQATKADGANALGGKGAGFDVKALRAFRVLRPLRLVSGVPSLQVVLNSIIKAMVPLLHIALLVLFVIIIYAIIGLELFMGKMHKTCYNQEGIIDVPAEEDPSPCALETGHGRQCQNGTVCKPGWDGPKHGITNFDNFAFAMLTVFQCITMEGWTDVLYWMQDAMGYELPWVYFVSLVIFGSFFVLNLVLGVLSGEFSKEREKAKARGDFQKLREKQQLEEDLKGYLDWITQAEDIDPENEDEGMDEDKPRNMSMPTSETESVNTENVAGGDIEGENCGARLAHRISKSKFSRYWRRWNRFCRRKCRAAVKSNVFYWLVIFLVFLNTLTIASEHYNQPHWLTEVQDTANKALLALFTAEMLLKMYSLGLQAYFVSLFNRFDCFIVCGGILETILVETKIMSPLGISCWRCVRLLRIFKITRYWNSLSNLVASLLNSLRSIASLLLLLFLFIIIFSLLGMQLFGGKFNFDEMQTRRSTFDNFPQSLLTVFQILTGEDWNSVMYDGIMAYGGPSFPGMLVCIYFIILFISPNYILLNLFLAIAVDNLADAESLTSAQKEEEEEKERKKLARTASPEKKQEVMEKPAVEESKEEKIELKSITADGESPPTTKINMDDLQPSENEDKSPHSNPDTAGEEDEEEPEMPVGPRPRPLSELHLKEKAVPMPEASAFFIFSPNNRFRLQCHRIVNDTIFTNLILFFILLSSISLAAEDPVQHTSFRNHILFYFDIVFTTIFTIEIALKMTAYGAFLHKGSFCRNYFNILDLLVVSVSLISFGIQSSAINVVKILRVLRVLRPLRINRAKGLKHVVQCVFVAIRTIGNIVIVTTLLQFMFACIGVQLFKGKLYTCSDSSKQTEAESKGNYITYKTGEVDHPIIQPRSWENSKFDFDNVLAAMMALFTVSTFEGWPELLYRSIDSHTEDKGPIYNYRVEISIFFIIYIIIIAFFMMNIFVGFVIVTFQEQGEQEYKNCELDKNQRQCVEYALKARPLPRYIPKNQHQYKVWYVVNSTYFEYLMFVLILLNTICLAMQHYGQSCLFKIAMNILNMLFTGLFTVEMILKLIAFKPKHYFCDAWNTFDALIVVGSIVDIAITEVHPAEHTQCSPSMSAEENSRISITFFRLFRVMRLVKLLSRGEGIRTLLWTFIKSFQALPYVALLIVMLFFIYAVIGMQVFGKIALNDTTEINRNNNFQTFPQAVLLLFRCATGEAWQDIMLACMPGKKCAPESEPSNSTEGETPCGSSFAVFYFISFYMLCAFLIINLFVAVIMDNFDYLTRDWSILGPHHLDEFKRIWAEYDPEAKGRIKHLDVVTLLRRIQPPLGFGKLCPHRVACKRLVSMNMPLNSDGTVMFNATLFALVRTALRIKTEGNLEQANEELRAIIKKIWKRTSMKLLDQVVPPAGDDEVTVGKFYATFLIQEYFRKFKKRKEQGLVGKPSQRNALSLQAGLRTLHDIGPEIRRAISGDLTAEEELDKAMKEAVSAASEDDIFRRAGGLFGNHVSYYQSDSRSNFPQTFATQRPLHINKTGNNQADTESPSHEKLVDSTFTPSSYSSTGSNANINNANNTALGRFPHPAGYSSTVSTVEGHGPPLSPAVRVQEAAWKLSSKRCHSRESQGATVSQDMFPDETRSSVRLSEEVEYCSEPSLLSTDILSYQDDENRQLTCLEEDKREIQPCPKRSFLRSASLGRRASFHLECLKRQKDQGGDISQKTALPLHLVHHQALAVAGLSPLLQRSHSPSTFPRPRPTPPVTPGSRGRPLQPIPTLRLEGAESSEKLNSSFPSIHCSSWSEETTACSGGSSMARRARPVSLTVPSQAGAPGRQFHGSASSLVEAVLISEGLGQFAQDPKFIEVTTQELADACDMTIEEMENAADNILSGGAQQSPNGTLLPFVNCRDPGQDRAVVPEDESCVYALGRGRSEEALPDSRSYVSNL
isolated strips of the descending aorta, sequence (P54290 25-944 partner limits assumed): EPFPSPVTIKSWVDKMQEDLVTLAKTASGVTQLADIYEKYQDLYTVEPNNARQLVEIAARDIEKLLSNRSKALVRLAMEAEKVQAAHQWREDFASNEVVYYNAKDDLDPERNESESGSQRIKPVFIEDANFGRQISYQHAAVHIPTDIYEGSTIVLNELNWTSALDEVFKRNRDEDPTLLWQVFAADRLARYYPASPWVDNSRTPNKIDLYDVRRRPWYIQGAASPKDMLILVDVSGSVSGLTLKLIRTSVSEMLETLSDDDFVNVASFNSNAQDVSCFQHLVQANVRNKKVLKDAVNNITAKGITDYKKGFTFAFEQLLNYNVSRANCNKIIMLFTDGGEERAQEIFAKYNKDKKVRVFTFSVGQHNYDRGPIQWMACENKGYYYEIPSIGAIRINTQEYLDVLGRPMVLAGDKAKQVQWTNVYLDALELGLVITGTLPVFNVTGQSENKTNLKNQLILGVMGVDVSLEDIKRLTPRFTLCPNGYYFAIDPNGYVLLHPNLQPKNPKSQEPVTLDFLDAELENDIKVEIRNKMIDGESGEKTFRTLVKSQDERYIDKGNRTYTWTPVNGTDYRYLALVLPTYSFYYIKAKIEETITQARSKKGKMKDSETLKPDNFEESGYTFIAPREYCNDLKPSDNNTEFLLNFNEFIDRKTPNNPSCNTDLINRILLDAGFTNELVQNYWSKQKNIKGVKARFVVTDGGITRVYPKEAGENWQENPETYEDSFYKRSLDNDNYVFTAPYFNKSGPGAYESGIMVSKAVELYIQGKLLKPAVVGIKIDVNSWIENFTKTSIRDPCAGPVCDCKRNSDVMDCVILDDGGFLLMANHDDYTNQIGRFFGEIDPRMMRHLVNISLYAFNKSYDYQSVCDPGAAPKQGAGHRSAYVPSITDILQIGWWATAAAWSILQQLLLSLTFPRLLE
isolated strips of the descending aorta, sequence (P54290 945-1091 partner limits assumed): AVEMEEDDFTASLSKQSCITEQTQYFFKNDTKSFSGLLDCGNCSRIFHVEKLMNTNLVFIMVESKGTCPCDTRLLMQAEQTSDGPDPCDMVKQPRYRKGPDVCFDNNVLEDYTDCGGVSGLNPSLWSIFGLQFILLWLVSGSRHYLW

For `CC1=C(C(=O)OC(C)C)C(c2cccc([N+](=O)[O-])c2)C(c2nc(CN(C)Cc3ccccc3)no2)=C(C)N1` (centres unmarked) [G, Isopropyl 1,4-dihydro-2,6-dimethyl-3-[3-(N--benzyl-N--methylamino)methyl-1,2,4-oxadiazol-5-yl]-4-(3-nitrophenyl)-pyridine-5-carboxylate hydrochloride], the Kb in series [1] is 0.355 nM.

As for `COC(=O)C1=C(C)NC(C)=C(c2nc(CN(C)CCc3ccc(OC)c(OC)c3)no2)C1c1cccc([N+](=O)[O-])c1` (centres unmarked) [F, Methyl 1,4-dihydro-2,6-dimethyl-3-[3-[N--(3,4-dimethoxyphenethyl)-N--methyl-amino]methyl-1,2,4-oxadiazol-5-yl]-4-(3-nitrophenyl)pyridine-5-carboxylate hydrochloride], in series [2], the minimal effective concentration amounted to 0.01 µM. Moreover, in series [1], the Kb is 0.0955 nM.

Take `COC(=O)C1=C(C)NC(C)=C(c2nc(CN3CCCCC3)no2)C1c1ccccc1` (centres unmarked) [B, Methyl 1,4-dihydro-2,6-dimethyl-3-(3-piperidinomethyl-1,2,4-oxadiazol-5-yl)-4-phenylpyridine-5-carboxylate hydrochloride]: the Kb in series [1] is 0.363 nM.

Turning to `COC(=O)C1=C(C)NC(C)=C(C(=O)OCCN(C)Cc2ccccc2)C1c1cccc([N+](=O)[O-])c1` (centres unmarked) [Compound R3, 2-(N--Benzyl-N--methylamino)ethyl methyl 1,4-dihydro-2,6-dimethyl-4-(3-nitrophenyl)pyridine-3,5-dicarboxylate, reference compound], the minimal effective concentration in series [2] was greater than 0.1 µM. Further, in the series on SHR, the “antihypertensive activity on 4 weeks administration” value is recorded as “no significant effects”. Further, the Kb in series [1] was 0.417 nM.

On to `COC(=O)C1=C(C)NC(C)=C(c2nc(CN3CCCCC3)no2)C1c1ccc(Cl)c(Cl)c1` (centres unmarked) [C, Methyl 1,4-dihydro-2,6-dimethyl-3-(3-piperidinomethyl-1,2,4-oxadiazol-5-yl)-4-(3,4-dichlorophenyl)pyridine-5-carboxylate hydrochloride], for which, in series [1], the Kb was 0.129 nM.

On to `COC(=O)C1=C(C)NC(C)=C(c2nc(CN(C)Cc3ccccc3)no2)C1c1cccc([N+](=O)[O-])c1` (centres unmarked) [D, Methyl 1,4-dihydro-2,6-dimethyl-3-[3-(N--benzyl-N--methylamino)methyl-1,2,4-oxadiazol-5-yl]-4-(3-nitrophenyl)-pyridine-5-carboxylate hydrochloride], for which the “antihypertensive effects in comparison with nifedipine and nicardipine” value in series [3] is “dose-dependently more potent and long acting antihypertensive effects in comparison with nifedipine and nicardipine”. Also, in series [4], the “antihypertensive activity in SHR” value is reported as “about the same antihypertensive activity as that of nicardipine 3 mg/kg” and the “duration of antihypertensive effect in SHR” value is “continued much longer than that of nicardipine”. For the same compound, in series [2], the minimal effective concentration stood at 0.01 µM. Also, the diuretic activity result in series [5] is “about the same diuretic activity as that of nicardipine 10 mg/kg, po”. In addition, in the series with SHR, the “antihypertensive activity on 4 weeks administration” value was “apparent antihypertensive activity” and the heart rate result is on record as “slight decrease of heart rate”. Further, in series [1], the Kb is 0.186 nM.

Take `COC(=O)C1=C(C)NC(C)=C(c2nc(CNC(C)c3ccccc3)no2)C1c1cccc([N+](=O)[O-])c1` (stereo not drawn) [E, Methyl 1,4-dihydro-2,6-dimethyl-3-[3-(α-methylbenzylamino)methyl-1,2,4-oxadiazol-5-yl]-4-(3-nitrophenyl)-pyridine-5-carboxylate citrate]: in series [1], the Kb is 0.0457 nM.

On to `COC(=O)C1=C(C)NC(C)=C(c2nc(CN3CCCCC3)no2)C1c1cccc([N+](=O)[O-])c1` (centres unmarked) [A, Methyl 1,4-dihydro-2,6-dimethyl-3-(3-piperidinomethyl-1,2,4-oxadiazol-5-yl)-4-(3-nitrophenyl)pyridine-5-carboxylate hydrochloride], for which, in series [1], the Kb is 0.0309 nM.

In the case of `COC(=O)C1=C(C)NC(C)=C(c2nc(C)no2)C1c1cccc([N+](=O)[O-])c1` (centres unmarked) [Compound R1, Methyl 1,4-dihydro-2,6-dimethyl-3-(3-methyl-1,2,4-oxadiazol-5-yl)-4-(3-nitrophenyl)pyridine-5-carboxylate, reference compound], in series [1] (R1 compared with compounds A-G), the “calcium antagonistic potency: times less potent than the subject compounds” value is recorded as 100-1000 times. Also, the Kb in series [1] was 32.4 nM.

(Values after patent US4705786A, “Novel oxadiazolyl-1,4-dihydropyridines useful as antihypertensive agents” (Sumitomo Pharmaceuticals Company, Limited, priority 1984, dated 1987).)
